This is an account of results in patent US20240148821A1, “PHARMACEUTICAL USE OF CYCLIC PEPTIDE COMPOUND” (CHUGAI SEIYAKU KABUSHIKI KAISHA, priority 2021, published 2024).

For orientation: IC50 means the concentration that inhibits the measured activity by half.

Numbered stars: 1 amine (or outer) side, 2 acyl side, 3 side chain; on linkers, the order of the positions; unused ones are H or OH. Bridge positions count the residues as written; N and C are the ends. Square brackets hold non-standard residues; d marks the D form. Peptide text beside a SMILES is read from it. * marks the point of attachment. hPhe(3-Cl-4-CF3) = N[C@@H](CCc1ccc(C(F)(F)F)c(Cl)c1)C(=O)O; NEtPhe(4-CF3) = CCN[C@@H](Cc1ccc(C(F)(F)F)cc1)C(=O)O; NMePhe(4-CF3) = CN[C@@H](Cc1ccc(C(F)(F)F)cc1)C(=O)O; hPhe(4-CF3) = N[C@@H](CCc1ccc(C(F)(F)F)cc1)C(=O)O; dβ3h(hPhe) = O=C(C[C@@H](CCc1ccccc1)N[*:1])[*:2]; NMePhe(4-Cl) = CN[C@@H](Cc1ccc(Cl)cc1)C(=O)O; NEtPhe(2-Cl) = CCN[C@@H](Cc1ccccc1Cl)C(=O)O; NMePhe(4-Me) = CN[C@@H](Cc1ccc(C)cc1)C(=O)O; NMedβ3hAla = C[C@H](CC(=O)[*:2])N(C)[*:1]; NMeGly(cPent) = CN[C@H](C(=O)O)C1CCCC1; dβ3hPip = O=C(C[C@H]1CCCCN1[*:1])[*:2]; NMeCha = CN[C@@H](CC1CCCCC1)C(=O)O; NMehLeu = CN[C@@H](CCC(C)C)C(=O)O; Hyp = O=C(O)[C@@H]1C[C@@H](O)CN1; NEtLeu = CCN[C@@H](CC(C)C)C(=O)O; NMeI = CC[C@H](C)[C@H](NC)C(=O)O; d(β3hL) = CC(C)C[C@@H](N)CC(=O)O; dNMeF = CN[C@H](Cc1ccccc1)C(=O)O; NMeD = CN[C@@H](CC(=O)O)C(=O)O; NMeL = CN[C@@H](CC(C)C)C(=O)O; NMeV = CN[C@H](C(=O)O)C(C)C; d(β3hA) = C[C@@H](N)CC(=O)O; NMeAbu = CC[C@H](NC)C(=O)O; NMeS = CN[C@@H](CO)C(=O)O; Morpholide = C1CN(*)CCO1; NMeA = CN[C@@H](C)C(=O)O; Piperidide = C1CCN(*)CC1; Pyrrolidide = C1CCN(*)C1; Ac5c = NC1(C(=O)O)CCCC1; Aze = O=C(O)[C@@H]1CCN1; Cyclopropyl = C1CC1*; Sar = CNCC(=O)O

This test addresses protein-protein interaction between Kras and SOS1 (biotin-tagged human Kras loaded with GDP, His-tagged human SOS1) (Homo sapiens (Human), UniProt P01116, G12D). Briefly: Protein-protein interaction inhibition between Kras and SOS1 (KrasG12D-SOS PPI) using AlphaScreen.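 Also: kras produced in E. coli, Ni-coupled donor beads and streptavidin acceptor beads, excitation 680 nm with emission detected at 520–620 nm via singlet oxygen transfer.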 It is filed as biochemical. The following applies: AlphaScreen; biotin-tagged human Kras loaded with GDP, His-tagged human SOS1; read-out: KRAS G12D-SOS PPI IC50. Background: Bead proximity is the source of the signal in Alpha formats.
For `CC[C@H](C)[C@@H]1NC(=O)[C@H](CC(C)C)N(C)C(=O)C[C@@H](C(=O)N2CCCCC2)N(C)C(=O)[C@H](C2CCCC2)N(C)C(=O)C2(CCCC2)NC(=O)[C@@H](Cc2ccccc2)N(C)C(=O)[C@H](CCc2ccc(C(F)(F)F)c(Cl)c2)NC(=O)CN(C)C(=O)[C@H](CC2CCCCC2)N(C)C(=O)CN(C)C(=O)CN(C)C1=O` [Compound 1446] ([NMeL]I[Sar][Sar][NMeCha][Sar][hPhe(3-Cl-4-CF3)][dNMeF][Ac5c][NMeGly(cPent)][NMeD]-Piperidide; lactam N-11), the IC50 was 150 nM. In the case of `CC[C@H](C)[C@@H]1NC(=O)[C@H](CC(C)C)N(C)C(=O)C[C@@H](CCc2ccccc2)NC(=O)[C@H]([C@@H](C)CC)N(C)C(=O)C2(CCCC2)NC(=O)[C@@H]2CCCN2C(=O)[C@H](CCc2ccc(C(F)(F)F)c(Cl)c2)NC(=O)CN(C)C(=O)[C@H](Cc2ccc(C)cc2)N(C)C(=O)[C@@H]2CCN2C(=O)[C@H](C)N(C)C1=O` [Compound 1874] (cyclo([Ac5c][NMeI][dβ3h(hPhe)][NMeL]I[NMeA][Aze][NMePhe(4-Me)][Sar][hPhe(3-Cl-4-CF3)]P)), the IC50 turned out to be 400 nM.

As to `CC[C@H](C)[C@@H]1NC(=O)[C@H](CC(C)C)N(C)C(=O)C[C@@H](CC(C)C)NC(=O)[C@H]([C@@H](C)CC)N(C)C(=O)C2(CCCC2)NC(=O)[C@@H]2CCCN2C(=O)[C@H](CCc2ccc(C(F)(F)F)c(Cl)c2)NC(=O)CN(C)C(=O)[C@H](Cc2ccc(C(F)(F)F)cc2)N(C)C(=O)[C@@H]2CCN2C(=O)[C@H](C)N(C)C1=O` [Compound 1899] (cyclo([Ac5c][NMeI][d(β3hL)][NMeL]I[NMeA][Aze][NMePhe(4-CF3)][Sar][hPhe(3-Cl-4-CF3)]P)), the IC50 amounted to 220 nM.

With `CC[C@H](C)[C@@H]1NC(=O)[C@H](CC(C)C)N(C)C(=O)C[C@@H](C)NC(=O)[C@H](C(C)C)N(C)C(=O)C2(CCCC2)NC(=O)[C@@H]2CCCN2C(=O)[C@H](CCc2ccc(C(F)(F)F)c(Cl)c2)NC(=O)CN(C)C(=O)[C@H](CC2CCCCC2)N(C)C(=O)[C@@H]2CCN2C(=O)[C@H](COC2CC2)N(C)C1=O` [Compound 1102] (cyclo([Ac5c][NMeV][d(β3hA)][NMeL]I[NMeS](Cyclopropyl)[Aze][NMeCha][Sar][hPhe(3-Cl-4-CF3)]P)), the IC50 was 160 nM.

With `CC[C@H](C)[C@@H]1NC(=O)[C@H](CC(C)C)N(C)C(=O)C[C@@H](C(=O)N2CCCC2)N(C)C(=O)[C@H](C(C)C)N(C)C(=O)C2(CCCC2)NC(=O)[C@@H]2CCCN2C(=O)[C@H](CCc2ccc(C(F)(F)F)c(Cl)c2)NC(=O)CN(C)C(=O)[C@H](Cc2ccc(C)cc2)N(C)C(=O)[C@@H]2CCN2C(=O)[C@H](C)N(C)C1=O` [Compound 1866] ([NMeL]I[NMeA][Aze][NMePhe(4-Me)][Sar][hPhe(3-Cl-4-CF3)]P[Ac5c][NMeV][NMeD]-Pyrrolidide; lactam N-11), the IC50 was 2.8 nM.

Turning to `CC[C@H](C)[C@@H]1NC(=O)[C@H](C)N(C)C(=O)C[C@@H](C(=O)N(C)C)N(C)C(=O)[C@H](C(C)C)N(C)C(=O)C2(CCCC2)NC(=O)[C@H](Cc2ccccc2Cl)N(CC)C(=O)[C@H](CCc2ccc(C(F)(F)F)c(Cl)c2)NC(=O)CN(C)C(=O)[C@H](CC2CCCCC2)N(C)C(=O)CN(C)C(=O)CN(C)C1=O` [Compound 2164] ([NMeA]I[Sar][Sar][NMeCha][Sar][hPhe(3-Cl-4-CF3)][NEtPhe(2-Cl)][Ac5c][NMeV][NMeD]-NMe2; lactam N-11), the IC50 is 300 nM. On to `CCO[C@@H]1C[C@H]2C(=O)NC3(CCCC3)C(=O)N(C)[C@@H]([C@@H](C)CC)C(=O)N(C)[C@H](C)CC(=O)N(C)[C@@H](CC(C)C)C(=O)N[C@@H]([C@@H](C)CC)C(=O)N(C)[C@@H](C)C(=O)N3CC[C@H]3C(=O)N(CC)[C@@H](Cc3ccc(C(F)(F)F)cc3)C(=O)N(C)CC(=O)N[C@@H](CCc3ccc(C(F)(F)F)c(Cl)c3)C(=O)N2C1` [Compound 932] (cyclo([Ac5c][NMeI][NMedβ3hAla][NMeL]I[NMeA][Aze][NEtPhe(4-CF3)][Sar][hPhe(3-Cl-4-CF3)][Hyp](Et))), for which the IC50 turned out to be 5.4 nM. Consider `CC[C@H](C)[C@@H]1NC(=O)[C@H](CC)N(C)C(=O)C[C@@H](C(=O)N2CCCCC2)N(C)C(=O)[C@H](C(C)C)N(C)C(=O)C2(CCCC2)NC(=O)[C@@H]2CCCN2C(=O)[C@H](CCc2ccc(C(F)(F)F)c(Cl)c2)NC(=O)CN(C)C(=O)[C@H](CC2CCCCC2)N(C)C(=O)[C@@H]2CCN2C(=O)[C@H](C)N(C)C1=O` [Compound 1638] ([NMeAbu]I[NMeA][Aze][NMeCha][Sar][hPhe(3-Cl-4-CF3)]P[Ac5c][NMeV][NMeD]-Piperidide; lactam N-11), for which the IC50 came to 7.3 nM.

For the molecule `CC[C@H](C)[C@@H]1NC(=O)[C@H](CC(C)C)N(CC)C(=O)C[C@@H](C(=O)N2CCCC2)N(C)C(=O)[C@H]([C@@H](C)CC)N(C)C(=O)C2(CCCC2)NC(=O)[C@@H]2CCCN2C(=O)[C@H](CCc2ccc(C(F)(F)F)c(Cl)c2)NC(=O)CN(C)C(=O)[C@H](Cc2ccc(C(F)(F)F)cc2)N(C)C(=O)[C@@H]2CCN2C(=O)[C@H](C)NC1=O` [Compound 1146] ([NEtLeu]IA[Aze][NMePhe(4-CF3)][Sar][hPhe(3-Cl-4-CF3)]P[Ac5c][NMeI][NMeD]-Pyrrolidide; lactam N-11), the IC50 turned out to be 1.9 nM.

As for `CC[C@H](C)[C@@H]1NC(=O)[C@H](CCC(C)C)N(C)C(=O)C[C@@H](C(=O)N2CCOCC2)N(C)C(=O)[C@H](C2CCCC2)N(C)C(=O)C2(CCCC2)NC(=O)[C@@H]2CCCN2C(=O)[C@H](CCc2ccc(C(F)(F)F)c(Cl)c2)NC(=O)CN(C)C(=O)[C@H](C2CCCC2)N(C)C(=O)[C@@H]2CCN2C(=O)[C@H](C)NC1=O` [Compound 1223] ([NMehLeu]IA[Aze][NMeGly(cPent)][Sar][hPhe(3-Cl-4-CF3)]P[Ac5c][NMeGly(cPent)][NMeD]-Morpholide; lactam N-11), the IC50 was determined as 1.2 nM. For `CC[C@H](C)[C@@H]1NC(=O)[C@H](C(C)C)N(C)C(=O)C[C@H]2CCCCN2C(=O)[C@H](CC(C)C)N(C)C(=O)C2(CCCC2)NC(=O)[C@H](CC(C)C)N(C)C(=O)[C@H](CCc2ccc(C(F)(F)F)cc2)NC(=O)CN(C)C(=O)[C@H](Cc2ccc(Cl)cc2)N(C)C(=O)CN(C)C(=O)CN(C)C1=O` [Compound 189] (cyclo([Ac5c][NMeL][dβ3hPip][NMeV]I[Sar][Sar][NMePhe(4-Cl)][Sar][hPhe(4-CF3)][NMeL])), the IC50 stood at 110 nM.

Regarding `CC[C@H](C)[C@@H]1NC(=O)[C@H](CC(C)C)N(C)C(=O)C[C@@H](C)N(C)C(=O)[C@H](C(C)C)N(C)C(=O)C2(CCCC2)NC(=O)[C@@H]2CCCN2C(=O)[C@H](CCc2ccc(C(F)(F)F)c(Cl)c2)NC(=O)CN(C)C(=O)[C@H](CC2CCCCC2)N(C)C(=O)[C@@H]2CCN2C(=O)[C@H](C)N(C)C1=O` [Compound 1800] (cyclo([Ac5c][NMeV][NMedβ3hAla][NMeL]I[NMeA][Aze][NMeCha][Sar][hPhe(3-Cl-4-CF3)]P)), the IC50 was found to be 11 nM.

As for `CC[C@H](C)[C@@H]1NC(=O)[C@H](CC(C)C)N(C)C(=O)C[C@@H](C)NC(=O)[C@H](C(C)C)N(C)C(=O)C2(CCCC2)NC(=O)[C@@H]2CCCN2C(=O)[C@H](CCc2ccc(C(F)(F)F)c(Cl)c2)NC(=O)CN(C)C(=O)[C@H](CC2CCCCC2)N(C)C(=O)[C@@H]2CCN2C(=O)[C@H](CC(C)C)N(C)C1=O` [Compound 1619] (cyclo([Ac5c][NMeV][d(β3hA)][NMeL]I[NMeL][Aze][NMeCha][Sar][hPhe(3-Cl-4-CF3)]P)), the IC50 was determined as 360 nM.
